# According to BindingDB's records for doi:10.1021/jm00009a001 (Cns Research, 1995):
# Biological target: Metabotropic glutamate receptor 5 (Rattus norvegicus, UniProt P31424)
# Assay: Concentration for half maximal activation of metabotropic glutamate mGluR5a in rat
# Chain of Metabotropic glutamate receptor 5 (P31424 whole entry): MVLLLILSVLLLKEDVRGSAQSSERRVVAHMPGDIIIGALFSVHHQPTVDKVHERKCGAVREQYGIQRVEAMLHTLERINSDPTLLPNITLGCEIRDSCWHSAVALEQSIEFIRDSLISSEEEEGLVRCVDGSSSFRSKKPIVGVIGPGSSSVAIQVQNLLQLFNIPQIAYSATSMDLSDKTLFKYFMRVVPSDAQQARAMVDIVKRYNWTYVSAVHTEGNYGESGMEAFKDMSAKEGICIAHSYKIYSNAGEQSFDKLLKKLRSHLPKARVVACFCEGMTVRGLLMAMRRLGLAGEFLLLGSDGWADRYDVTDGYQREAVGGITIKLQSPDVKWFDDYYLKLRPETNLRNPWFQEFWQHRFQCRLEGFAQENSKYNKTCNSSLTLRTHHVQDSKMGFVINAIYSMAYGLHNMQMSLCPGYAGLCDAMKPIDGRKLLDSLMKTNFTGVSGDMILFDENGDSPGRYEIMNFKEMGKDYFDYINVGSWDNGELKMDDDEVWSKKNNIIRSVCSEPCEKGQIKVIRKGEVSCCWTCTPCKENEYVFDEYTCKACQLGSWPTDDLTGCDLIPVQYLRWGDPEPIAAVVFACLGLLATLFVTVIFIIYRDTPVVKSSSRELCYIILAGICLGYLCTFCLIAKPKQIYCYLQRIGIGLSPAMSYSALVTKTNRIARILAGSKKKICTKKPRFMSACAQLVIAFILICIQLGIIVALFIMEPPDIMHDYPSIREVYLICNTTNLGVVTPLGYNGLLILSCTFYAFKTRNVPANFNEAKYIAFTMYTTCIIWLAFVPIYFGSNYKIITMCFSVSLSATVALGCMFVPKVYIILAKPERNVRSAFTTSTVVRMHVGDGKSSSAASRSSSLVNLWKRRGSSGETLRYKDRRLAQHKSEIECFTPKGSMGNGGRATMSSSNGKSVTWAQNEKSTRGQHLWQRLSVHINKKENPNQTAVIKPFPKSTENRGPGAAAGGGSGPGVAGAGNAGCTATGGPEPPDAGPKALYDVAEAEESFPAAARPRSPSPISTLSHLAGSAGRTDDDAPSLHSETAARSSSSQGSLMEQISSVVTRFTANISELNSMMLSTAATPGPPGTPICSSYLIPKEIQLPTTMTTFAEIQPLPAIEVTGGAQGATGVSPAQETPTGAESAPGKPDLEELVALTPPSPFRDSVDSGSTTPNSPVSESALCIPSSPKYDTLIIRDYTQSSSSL
row,Structure (SMILES),EC50
1,"N[C@@H](Cn1oc(=O)[nH]c1=O)C(=O)O [2-amino-3-(3,5-dioxo[1,2,4]oxadiazolidin-2-yl)propionic acid]",0.3 µM
2,"N[C@H](C(=O)O)c1cc(=O)[nH]o1 [(S)-Amino-(3-oxo-2,3-dihydro-isoxazol-5-yl)-acetic acid]",10 µM
3,N[C@@H](CCC(=O)O)C(=O)O [L-Glutamic acid],10 µM
4,N[C@@]1(C(=O)O)CC[C@@H](C(=O)O)C1 [SMR001230688],50 µM
